Data from paper PMC9026026 (ACS Omega, 2022).
“And” between values parts separate entries of the source, which are not always exact repeats. Identical values can stand only once. Like-named read-outs stand apart in the source and are kept apart here. Each block holds one molecule with its values, some of them ahead of it.

Columns and labels:
CYP2C8 [1] = settings: read-out: IC50 for CYP2C8 inhibitory activity; mixed type of inhibition; cited from earlier work
[2] = cited from earlier work
[3] = cited from earlier work; for elevation of oral exposure of repaglinide upon coadministration: clinical
CYP2C8 [4] = molecular target: T1, CYP2C8 (Homo sapiens, UniProt P10632); settings: read-out: Ki for CYP2C8 inhibition in HLM; cited from earlier work
T1 sequence (P10632 1-490): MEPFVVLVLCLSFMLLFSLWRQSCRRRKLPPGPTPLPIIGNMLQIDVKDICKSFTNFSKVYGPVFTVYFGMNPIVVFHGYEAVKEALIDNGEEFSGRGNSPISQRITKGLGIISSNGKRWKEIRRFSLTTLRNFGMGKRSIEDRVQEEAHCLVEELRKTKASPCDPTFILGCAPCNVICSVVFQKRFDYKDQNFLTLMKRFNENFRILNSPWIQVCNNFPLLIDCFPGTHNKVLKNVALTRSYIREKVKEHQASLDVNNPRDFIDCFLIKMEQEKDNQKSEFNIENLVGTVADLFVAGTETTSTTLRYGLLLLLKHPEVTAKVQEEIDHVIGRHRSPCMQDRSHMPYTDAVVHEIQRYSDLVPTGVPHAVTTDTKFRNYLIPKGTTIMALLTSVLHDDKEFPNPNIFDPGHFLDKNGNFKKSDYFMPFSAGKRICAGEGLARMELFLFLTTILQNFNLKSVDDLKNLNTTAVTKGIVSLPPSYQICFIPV

[5] = format: in vivo, Wistar rats; settings: for Cmax: mean ± SEM (n = 5)
CYP3A4 = settings: cited from earlier work; for Ki: read-out: Ki for CYP3A4
CYP2C8 [6] = molecular target: T1, CYP2C8
CYP2C8 [7] = molecular target: T1, CYP2C8; experiment: biochemical
[8] = system: amodiaquine metabolism in rat liver microsomes (RLM); format: in vitro ADME; settings: RLM 0.5 mg/mL, amodiaquine 2 μM, myricetin 0, 10, 100 μM, 30 min
CYP2D6 = settings: read-out: IC50 for CYP2D6; cited from earlier work
[9] = rat model; cited from earlier work
[10] = substrate: CCN(CC)Cc1cc(Nc2ccnc3cc(Cl)ccc23)ccc1O; experiment: Kinetic parameters of CYP2C8-catalyzed amodiaquine-N-deethylation in HLM; format: in vitro ADME, human; settings: other: HLM, N-desethylamodiaquine formation; pH 7.4; 37.0 °C
[11] = rats, amodiaquine 60 mg/kg oral alone (Group-I)
[12] = rats, myricetin 5 mg/kg i.v. followed by amodiaquine 60 mg/kg oral (Group-II)

Molecule: O=c1c(O)c(-c2ccc(O)cc2O)oc2cc(O)cc(O)c12 [morin]
IC50 (CYP2C8 [1]): 17.3 µM

Molecule: Cc1ccc(C)c(OCCCC(C)(C)C(=O)O)c1 [gemfibrozil]
Cmax ([2]; 600 mg twice daily, healthy human volunteers): 16850 ng/mL | increase in oral exposure of cerivastatin ([3]; human subjects): about 5.6 fold | enhancement of AUC of repaglinide ([3]; humans): 8.3 fold | enhancement of Cmax of repaglinide ([3]; humans): 2.4 fold | enhancement of bioavailability of sitagliptin ([3]; humans): 54% | Ki (CYP2C8 [4]): 10.2 µM

AUC0–t [5, 11]: 1313.30 ± 349.54 ng·h/mL | AUC0–∞ [5, 11]: 3362.65 ± 667.75 ng·h/mL | MRT [5, 11]: 18.70 ± 4.68 h | T1/2 [5, 11]: 11.65 ± 3.21 h | Tmax [5, 11]: 4.20 ± 0.80 h | Cmax [5, 11]: 370.40 ± 125.05 ng/mL | AUC0–t [5, 12]: 2061.57 ± 452.16 ng·h/mL | AUC0–∞ [5, 12]: 3980.79 ± 1273.24 ng·h/mL | MRT [5, 12]: 12.64 ± 4.42 h | T1/2 [5, 12]: 7.91 ± 3.00 h | Tmax [5, 12]: 3.60 ± 0.81 h
Molecule: CCNCc1cc(Nc2ccnc3cc(Cl)ccc23)ccc1O [N-desethylamodiaquine]

Molecule: O=c1c(O)c(-c2ccc(O)c(O)c2)oc2cc(O)ccc12 [fisetin]
IC50 (CYP2C8 [1]): 10.8 µM

IC50 (CYP2C8 [6]): 2.4 ± 0.05 µM | α-value (CYP2C8 [6]; HLM, mixed inhibition model): 3.55 | Ki (CYP2C8 [7]): 1.7 ± 0.11 µM | plasma exposure of N-desethylamodiaquine ([5]; rats, myricetin coadministration vs amodiaquine without myricetin): Substantial elevation
Molecule: O=c1c(O)c(-c2cc(O)c(O)c(O)c2)oc2cc(O)cc(O)c12 [myricetin, Myricetin]
Cmax in plasma ([2]; humans, oral cranberry juice containing myricetin): 21600 ± 5700 ng/mL | IC50 (CYP3A4; read-out: IC50 for CYP3A4): 10.7 µM and 20.3 µM | percent of amodiaquine remaining [8]: increased with the increasing concentration of myricetin | IC50 (CYP2D6): 30.2 µM

Molecule: COc1cc(Cc2cnc(N)nc2N)cc(OC)c1OC [trimethoprim]
elevation of oral exposure of repaglinide upon coadministration [3]: 2 fold

Molecule: COC(=O)[C@H](c1ccccc1Cl)N1CCc2sccc2C1 [clopidogrel]
elevation of oral exposure of repaglinide upon coadministration [3]: 5 fold

AUC(0-t) ([5]; male, Wistar, rat, plasma, po, 60 mg/kg, AUC0–t, rats, amodiaquine 60 mg/kg oral alone (Group-I)): 3120 ± 414 ng·h/mL | Cmax ([5]; male, Wistar, rat, plasma, po, 60 mg/kg, Cmax, rats, amodiaquine 60 mg/kg oral alone (Group-I)): 1030 ± 247 ng/mL | half-life ([5]; male, Wistar, rat, plasma, po, 60 mg/kg, T1/2, rats, amodiaquine 60 mg/kg oral alone (Group-I)): 2.16 ± 0.3 h
Molecule: CCN(CC)Cc1cc(Nc2ccnc3cc(Cl)ccc23)ccc1O [amodiaquine]

Molecule: O=c1c(O)c(-c2ccc(O)c(O)c2)oc2cc(O)cc(O)c12 [quercetin]
Cmax ([2]; humans, 100 mg dose): 2310 ng/mL | enhancement of oral exposure of repaglinide [9]: 1.8 fold | alteration in the pharmacokinetics of midazolam ([3]; single-dose treatment, humans): […] | Ki (CYP3A4): […]

Molecule: Oc1ccc(/C=C/c2cc(O)cc(O)c2)cc1 [trans-resveratrol]
Cmax ([2]; humans, 2000 mg dose): 1274 ng/mL | decrease of clearance of carbamazepine ([3]; clinical study): 33% | enhancement of AUC of carbamazepine ([3]; clinical study): 1.4 fold | Ki (CYP3A4): […]

B1: CYP2C8 (Homo sapiens) (protein)
chain: T1 sequence (P10632 1-490)
Km [10]: 4.7 ± 0.12 µM | Vmax [10]: 3996 ± 46 pmol/min/mg protein
